{
  "source": "patent US6291247A",
  "about": "“Methods of screening for factors that disrupt neurotrophin conformation and reduce neurotrophin biological activity” (priority 1996, dated 2001)",
  "key": {"NGF": {"target": "T1, NGF (Mus musculus, UniProt P01139)", "T1 construct": "homodimer", "T1 sequence (P01139 122-239)": "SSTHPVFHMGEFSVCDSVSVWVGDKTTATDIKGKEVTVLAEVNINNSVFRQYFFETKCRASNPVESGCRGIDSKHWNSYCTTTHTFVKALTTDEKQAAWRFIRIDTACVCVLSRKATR", "test": "Circular dichroism of NGF", "settings": "100 μM, 22° C.", "protocol": "For conformation and dimer integrity studies, 0.1 nM ^125 I-NGF was incubated in the presence or absence of Zn^2+ in HKR buffer for 2 hours at 4° C. in a total volume of 0.1 ml. For crosslinking NGF […], 0.4 mM BS^3 was added to the mixture and incubated for 30 minutes at 25° C. The reaction was quenched with reducing SDS PAGE sample buffer, electrophoresed using a linear 15% acrylamide gel and autoradiographed. To assess the dimeric nature of NGF in the presence of Zn^2+, ^125 I-NGF was electrophoresed in a non-reducing SDS PAGE system as described, autoradiographed, and the labelled proteins excised from the gels and counted. For CD studies, NGF (50 μg/ml) was dissolved in 50 mM Tris-HCl buffer and spectra recorded using a computer controlled Jasco J-600 spectropolarimeter. Samples were acquired in the absence or presence of Zn^2+ (100 μM) at 22° C. in a 2 mm quartz cell averaged over eight scans. Modification of His residues by DEPC was carried out as previously described, where the molar excess of DEPC added and the extent of reaction was determined by evaluating the loss of binding activity of the modified product."}, "PC12 cells": {"test_system": "PC12 cells", "test": "Toxicity to PC12 cells", "format": "cell-based, rat", "protocol": "Effects of divalent ions on NGF mediated survival and toxicity was evaluated using a colorimetric assay for the lysosomal enzyme acid phosphatase to determine cell number (Connolly, D. T., Knight, M. B., Harakas, N. K, Wittwer, A. J. & Feder, J. Determination of the number of endothelial cells in culture using an acid phosphatase assay. Anal. Biochem. 152, 136-140 (1986); Ueda, Y., Walsh, E., Nakanishi H. & Yoshida, K. A. colorometric assay method for the evaluation of neurotrophic activity in vitro. Neurosci. Lett. 165, 203-207 (1994)). […] To evaluate toxicity, the cells were seeded and maintained without NGF in RPMI with 10% heat inactivated donor horse serum and 5% fetal calf serum in the presence of additives. Loss in viable cell number was determined and expressed as a percent of control. NGF rescues PC12 cells from cell death in serum-free medium(Greene, L. A. Nerve growth factor prevents the death and stimulates neuronal differentiation of clonal PC12 pheochromocytoma cells in serum-free medium. J. Cell Biol. 78, 747-755 (1978)). NGF-dependent survival was assessed by harvesting PC12 cells in balanced salt solution followed with washing by 4 cycles of suspension and centrifugation in serum-free RPMI prior to seeding in 96 well plates. After incubation with additives, medium was removed from the wells and cells washed once with 200 μl PBS. Buffer containing 0.1M sodium acetate pH 5.5, 0.1% Triton X-100 and 10 mM p-nitrophenyl phosphate (Sigma 104 phosphatase substrate) was added to each well (100 μl). Plates were incubated at 37° C. for 3 hours. The reaction was stopped by the addition of 10 μl/well of 1N sodium hydroxide and the color development measured at 405 nm using a microplate reader. The relationship between cell number and enzyme activity was linear over the range 1000 to 15,000 cells.\nTo explore the ability of other transition metals to influence the biological activities of NGF, a series of cations known to mimic in certain respects the binding of zinc to proteins were tested. […] For this reason these ions were not tested in NGF- dependant growth phenomena. […] As these studies appeared to indicate potentially complex results upon metal ions binding to NGF, a receptor crosslinking system where specific receptor types could be identified was utilized."}, "DRG neurons": {"test_system": "DRG neurons", "test": "BDNF-dependent neurite outgrowth of DRG neurons", "format": "cell-based, chick", "settings": "n = 8", "protocol": "Dissosiated cells enriched for sensory neurons were prepared from ED8 chick DRG as described (Dostaler, S. M. et al. Characterization of a distinctive motif of the low molecular weight neurotrophin receptor that modulates NGF-mediated neurite growth. Eur. J. Neurosci. 8, 870-879 (1996)). Neurons were seeded at a density of 800-1000 cells/well in Ham's F-12 containing 5% FCS and NGF at 10 pM into wells of Terasaki plates treated with polyysine. The cells were incubated with the indicated additives at 37° C. in a 5% CO2 atmosphere. The cells on the entire lower horizontal surface of the well were scored for neurite growth at 18-20 hours using an inverted microscope fitted with phase contrast optics. A neurite was scored if its caliber from the origin to terminal was constant and its length was equal to or greater than 1.5 cell body diameters. Neurite growth was corrected for background (no NGF).\nHuman recombinant BDNF and human recombinant NT-3 were obtained from Alomone Laboratories (Israel). The iodination, crosslinking, and binding experiments using BDNF and NT-3 were performed using the methods described above for NGF. Neurite outgrowth assays were performed as described in the presence of 4.0 nM NT-3 or 8.0 nM BDNF."}},
  "note": "“Also recorded” adds a separate entry of the source.",
  "data": [
    {"smiles": "[Zn+2]", "note": "[Zn^2+]", "values": [
      {"measurement": "Mean molar ellipticity of NGF by CD", "setting": "NGF", "value": "significant decrease"},
      {"measurement": "Toxicity (PC12 cell viability)", "setting": "PC12 cells; 100 μM", "value": "97 ± 11", "unit": "% control"},
      {"measurement": "Toxicity to PC12 cells", "setting": "PC12 cells; in presence of serum, up to 100 μM", "value": "no loss in cell viability; also recorded: not toxic"},
      {"measurement": "Neurite Outgrowth, BDNF (8.0 nM)", "setting": "DRG neurons; 30 μM Zn2+", "value": "30.0 ± 13.3 % Maximum process bearing neur"},
      {"measurement": "Neurite Outgrowth, BDNF (8.0 nM)", "setting": "DRG neurons; 50 μM Zn2+", "value": "1.4 ± 1.4 % Maximum process bearing neur"}
    ]}
  ]
}
